Measurements from patent publication US6737383B1, “Herbicidal oxadiazolidines” (priority 1999, dated 2004).

How the values were obtained:
Alexandergrass = experiment: Test D Alexandergrass; assay type: in vivo, Brachiaria plantaginea; conditions: Preemergence, 0 to 100 scale
In short: (§1)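 Scoring used a 0–100 visual injury scale, with 0 meaning no effect and 100 complete control, assessed 14–21 days after application alongside untreated pots. Preemergence treatments went onto sandy loam surfaces of separately potted seeds within a day of sowing.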

bermuda-grass = experiment: Test D bermudagrass; assay type: in vivo, Cynodon dactylon; conditions: Preemergence, 0 to 100 scale
From the text: (§2) Seeds, tubers, or plant parts of Alexandergrass (Brachiaria plantaginea), bermuda-grass (Cynodon dactylon), common pursiane (Portulaca oleracea), common ragweed (Ambrosia elatior), common groundsel (Senecio vulgaris), dallisgrass (Paspalum dilatatum), goosegrass (Eleusine indica), guineagrass (Panicum maximum), itchgrass (Rottboellia exaltata), Johnson grass (Sorghum halepense), large crabgrass (Digitaria sanguinalis), pitted morningglory (Ipomoea lacunosa), purple nutsedge (Cyperus rotundus), sandbur (Cenchrus echinatus), sourgrass (Trichachne insularis), Spanishneedles (Bidens bipinnata), surinam grass (Brachiaria decumbens) and tall mallow (Malva sylvestris) were planted into greenhouse pots of flats containing greenhouse planting medium. Plant species were grown in separate pots or individual compartments. Preemergence applications were made within one day of planting the seed or plant part.
(§3) Test chemicals were formulated in a non-phytotoxic solvent mixture which included a surfactant and applied preemergence to the surface of the pot containing seeds in a sandy loam soil. Untreated control pots and treated pots were placed in the greenhouse for growth and visually evaluated for injury 14 to 21 days after herbicide application. Plant response ratings, summarized in Table C, are based on a 0 to 100 scale where 0 is no injury and 100 is complete control. A dash (−) response means no test result.

common pursiane = experiment: Test D common purslane; assay type: in vivo, Portulaca oleracea
In short: as §1

common ragweed = experiment: Test D common ragweed; assay type: in vivo, Ambrosia elatior; conditions: Preemergence, 0 to 100 scale
From the text: as §2, §3

common groundsel = experiment: Test D common groundsel; assay type: in vivo, Senecio vulgaris; conditions: Preemergence, 0 to 100 scale
From the text: as §2, §3

dallisgrass = experiment: Test D dallisgrass; assay type: in vivo, Paspalum dilatatum; conditions: Preemergence, 0 to 100 scale
From the text: as §2, §3

goosegrass = experiment: Test D goosegrass; assay type: in vivo, Eleusine indica; conditions: Preemergence, 0 to 100 scale
From the text: as §2, §3

guineagrass = experiment: Test D guineagrass; assay type: in vivo, Panicum maximum; conditions: Preemergence, 0 to 100 scale
In short: as §1

itchgrass = experiment: Test D itchgrass; assay type: in vivo, Rottboellia exaltata; conditions: Preemergence, 0 to 100 scale
In short: as §1

Johnson grass = experiment: Test D Johnson grass; assay type: in vivo, Sorghum halepense; conditions: Preemergence, 0 to 100 scale
From the text: as §2, §3

large crabgrass = experiment: Test D large crabgrass; assay type: in vivo, Digitaria sanguinalis; conditions: Preemergence, 0 to 100 scale
From the text: as §2, §3

purple nutsedge = experiment: Test D purple nutsedge; assay type: in vivo, Cyperus rotundus; conditions: Preemergence, 0 to 100 scale
In short: as §1

sandbur = experiment: Test D sandbur; assay type: in vivo, Cenchrus echinatus; conditions: Preemergence, 0 to 100 scale
In short: as §1

Spanishneedles = experiment: Test D Spanishneedles; assay type: in vivo, Bidens bipinnata; conditions: Preemergence, 0 to 100 scale
In short: as §1

surinam grass = experiment: Test D surinam grass; assay type: in vivo, Brachiaria decumbens; conditions: Preemergence, 0 to 100 scale
In short: as §1

Green foxtail = experiment: Test D green foxtail; assay type: in vivo; conditions: Preemergence, 0 to 100 scale
In short: as §1

johnsongrass = experiment: Test C postemergence johnsongrass; assay type: in vivo, Sorghum halepense; conditions: 0 to 100 scale, 0 no effect, 100 complete control
Protocol: (§4) Compounds evaluated in this test were formulated in a non-phytotoxic solvent mixture which included a surfactant and applied to plants that were grown for various periods of time before treatment (postemergence application). A mixture of sandy loam soil and greenhouse potting mix in a 60:40 ratio was used for the postemergence test.
(§5) Plantings of these crops and weed species were adjusted to produce plants of appropriate size for the postemergence test. All plant species were grown using normal greenhouse practices. Crop and weed species include arrowleaf sida (Sida rhombifolia), barnyardgrass (Echinochloa crus-galli), cocklebur (Xanthium strumarium), common ragweed (Ambrosia elatior), corn (Zea mays), cotton (Gossypium hirsutum), eastern black nightshade (Solanum ptycanthum), fall panicum (Panicum dichotomiflorum), field bindweed (Convolvulus arvensis), giant foxtail (Setaria faberii), hairy beggarticks (Bidens pilosa), ivyleaf morningglory (Ipomoea hederacea), johnsongrass (Sorghum halepense), ladysthumb smartweed (Polygonum persicaria), lambsquarters (Chenopodium album), large crabgrass (Digitaria sanguinalis), purple nutsedge (Cyperus rotundus), redroot pigweed (Amaranthus retroflexus), soybean (Glycine max), surinam grass (Brachiaria decumbens), velvetleaf (Abutilon theophrasti) and wild poinsettia (Euphorbia heterophylla).
(§6) Treated plants and untreated controls were maintained in a greenhouse for approximately 14, to 21 days, after which all treated plants were compared to untreated controls and visually evaluated. Plant response ratings, summarized in Table C, were based upon a 0 to 100 scale where 0 was no effect and 100 was complete control. A dash response (−) means no test result.

wild poinsettia = experiment: Test C postemergence wild poinsettia; assay type: in vivo, Euphorbia heterophylla; conditions: 0 to 100 scale, 0 no effect, 100 complete control
Protocol: as §4, §5, §6

[1] = Rate 64 g/ha, 0 no injury, 100 complete control
[2] = Rate 32 g/ha, 0 no injury, 100 complete control
[3] = Rate 125 g/ha, 0 no injury, 100 complete control

Cc1ccccc1-n1c(=O)on(C(=O)N(c2ccccc2)C(C)C)c1=O [Compound 36]
Plant response rating, Alexandergrass (Alexandergrass; Rate 500 g/ha): 98 | Plant response rating, Bermudagrass (bermuda-grass; Rate 500 g/ha): 100 | Plant response rating, C. purslane (common pursiane; Rate 500 g/ha, Preemergence; 0 to 100 scale): 10 | Plant response rating, C. purslane (common pursiane; Rate 500 g/ha; Preemergence; 0 to 100 scale): 0 | Plant response rating, C. ragweed (common ragweed; Rate 500 g/ha): 10 | Plant response rating, Com. groundsel (common groundsel; Rate 500 g/ha): 100 | Plant response rating, Dallisgrass (dallisgrass; Rate 500 g/ha): 100 | Plant response rating, Goosegrass (goosegrass; Rate 500 g/ha): 100 | Plant response rating, Guineagrass (guineagrass; Rate 500 g/ha): 100 | Plant response rating, Itchgrass (itchgrass; Rate 500 g/ha): 80 | Plant response rating Johnsongrass (Johnson grass; Rate 500 g/ha): 0 | Plant response rating Large crabgrass (large crabgrass; Rate 500 g/ha): 100 | Plant response rating, Purple nutsedge (purple nutsedge; Rate 500 g/ha): 0 | Plant response rating, Sandbur (sandbur; Rate 500 g/ha): 100 | Plant response rating, Spanishneedles (Spanishneedles; Rate 500 g/ha): 10 | Plant response rating Surinam grass (surinam grass; Rate 500 g/ha): 85 | Plant response rating, Green foxtail (Green foxtail; Rate 500 g/ha): 100

Cc1ccc(N(C(=O)n2oc(=O)n(C(C)C)c2=O)C(C)C)cc1 [Compound 132]
Plant response rating Johnsongrass (johnsongrass; Rate 140 g/ha): 0 | Plant response rating Johnsongrass (johnsongrass; Rate 280 g/ha): 0 | Plant response rating Johnsongrass (johnsongrass; Rate 560 g/ha): 0 | Plant response rating Johnsongrass (johnsongrass; Rate 1120 g/ha): 60 | Plant response rating Wild poinsettia (wild poinsettia; Rate 140 g/ha): 0 | Plant response rating Wild poinsettia (wild poinsettia; Rate 280 g/ha): 0 | Plant response rating Wild poinsettia (wild poinsettia; Rate 560 g/ha): 0 | Plant response rating Wild poinsettia (wild poinsettia; Rate 1120 g/ha): 0 | Plant response rating, Alexandergrass (Alexandergrass; [1]): 98 | Plant response rating, Bermudagrass (bermuda-grass; [1]): 100 | Plant response rating, C. purslane (common pursiane; Rate 64 g/ha, Preemergence; 0 to 100 scale, 0 no injury, 100 complete control): 10 | Plant response rating, C. ragweed (common ragweed; [1]): 0 | Plant response rating, Com. groundsel (common groundsel; [1]): 0 | Plant response rating, Dallisgrass (dallisgrass; [1]): 98 | Plant response rating, Goosegrass (goosegrass; [1]): 98 | Plant response rating, Guineagrass (guineagrass; [1]): 85 | Plant response rating, Itchgrass (itchgrass; [1]): 10 | Plant response rating Johnsongrass (Johnson grass; [1]): 35 | Plant response rating Large crabgrass (large crabgrass; [1]): 100 | Purple nutsedge plant response rating (purple nutsedge; [1]): 0 | Sandbur plant response rating (sandbur; [1]): 0 | Spanishneedles plant response rating (Spanishneedles; [1]): 0 | Surinam grass plant response rating (surinam grass; [1]): 30 | Green foxtail plant response rating (Green foxtail; [1]): 100 | Plant response rating, Green foxtail (Green foxtail; [1]): 100

CCc1ccccc1-n1c(=O)on(C(=O)N(c2ccc(F)cc2)C(C)C)c1=O [Compound 34]
Plant response rating, Alexandergrass (Alexandergrass; [2]): 0 | Plant response rating, Alexandergrass (Alexandergrass; [1]): 20 | Plant response rating, Alexandergrass (Alexandergrass; [3]): 30 | Plant response rating, Alexandergrass (Alexandergrass; Rate 250 g/ha): 60 | Plant response rating, Bermudagrass (bermuda-grass; [2]): 85 | Plant response rating, Bermudagrass (bermuda-grass; [1]): 98 | Plant response rating, Bermudagrass (bermuda-grass; [3]): 100 | Plant response rating, Bermudagrass (bermuda-grass; Rate 250 g/ha): 100 | Plant response rating, C. purslane (common pursiane; Rate 32 g/ha; Preemergence; 0 to 100 scale, 0 no injury, 100 complete control): 0 | Plant response rating, C. purslane (common pursiane; Rate 125 g/ha, Preemergence; 0 to 100 scale, 0 no injury, 100 complete control): 0 | Plant response rating, C. purslane (common pursiane; Rate 250 g/ha; Preemergence; 0 to 100 scale): 0 | Plant response rating, C. ragweed (common ragweed; [2]): 0 | Plant response rating, C. ragweed (common ragweed; [1]): 0 | Plant response rating, C. ragweed (common ragweed; [3]): 0 | Plant response rating, C. ragweed (common ragweed; Rate 250 g/ha): 0 | Plant response rating, Com. groundsel (common groundsel; [2]): 0 | Plant response rating, Com. groundsel (common groundsel; [1]): 0 | Plant response rating, Com. groundsel (common groundsel; [3]): 0 | Plant response rating, Com. groundsel (common groundsel; Rate 250 g/ha): 0 | Plant response rating, Dallisgrass (dallisgrass; [2]): 0 | Plant response rating, Dallisgrass (dallisgrass; [1]): 80 | Plant response rating, Dallisgrass (dallisgrass; [3]): 98 | Plant response rating, Dallisgrass (dallisgrass; Rate 250 g/ha): 100 | Plant response rating, Goosegrass (goosegrass; [2]): 0 | Plant response rating, Goosegrass (goosegrass; [1]): 75 | Plant response rating, Goosegrass (goosegrass; [3]): 85 | Plant response rating, Goosegrass (goosegrass; Rate 250 g/ha): 98 | Plant response rating, Guineagrass (guineagrass; [2]): 30 | Plant response rating, Guineagrass (guineagrass; [1]): 80 | Plant response rating, Guineagrass (guineagrass; [3]): 85 | Plant response rating, Guineagrass (guineagrass; Rate 250 g/ha): 98 | Plant response rating, Itchgrass (itchgrass; [2]): 0 | Plant response rating, Itchgrass (itchgrass; [1]): 0 | Plant response rating, Itchgrass (itchgrass; [3]): 0 | Plant response rating, Itchgrass (itchgrass; Rate 250 g/ha): 20 | Plant response rating Johnsongrass (Johnson grass; [2]): 0 | Plant response rating Johnsongrass (Johnson grass; [1]): 0 | Plant response rating Johnsongrass (Johnson grass; [3]): 20 | Plant response rating Johnsongrass (Johnson grass; Rate 250 g/ha): 30 | Plant response rating Large crabgrass (large crabgrass; [2]): 85 | Plant response rating Large crabgrass (large crabgrass; [1]): 98 | Plant response rating Large crabgrass (large crabgrass; [3]): 100 | Plant response rating Large crabgrass (large crabgrass; Rate 250 g/ha): 100 | Plant response rating, Purple nutsedge (purple nutsedge; [2]): 0 | Purple nutsedge plant response rating (purple nutsedge; [1]): 0 | Purple nutsedge plant response rating (purple nutsedge; [3]): 0 | Plant response rating, Purple nutsedge (purple nutsedge; Rate 250 g/ha): 0 | Plant response rating, Sandbur (sandbur; [2]): 0 | Sandbur plant response rating (sandbur; [1]): 0 | Sandbur plant response rating (sandbur; [3]): 30 | Plant response rating, Sandbur (sandbur; Rate 250 g/ha): 40 | Plant response rating, Spanishneedles (Spanishneedles; [2]): 0 | Spanishneedles plant response rating (Spanishneedles; [1]): 0 | Spanishneedles plant response rating (Spanishneedles; [3]): 0 | Plant response rating Surinam grass (surinam grass; [2]): 0 | Surinam grass plant response rating (surinam grass; [1]): 0 | Surinam grass plant response rating (surinam grass; [3]): 0 | Plant response rating Surinam grass (surinam grass; Rate 250 g/ha): 20 | Plant response rating, Green foxtail (Green foxtail; [2]): 0
